Molecular target: T1, recombinant human ARG1 (Homo sapiens, UniProt P05089)
T1 sequence (P05089 1-322): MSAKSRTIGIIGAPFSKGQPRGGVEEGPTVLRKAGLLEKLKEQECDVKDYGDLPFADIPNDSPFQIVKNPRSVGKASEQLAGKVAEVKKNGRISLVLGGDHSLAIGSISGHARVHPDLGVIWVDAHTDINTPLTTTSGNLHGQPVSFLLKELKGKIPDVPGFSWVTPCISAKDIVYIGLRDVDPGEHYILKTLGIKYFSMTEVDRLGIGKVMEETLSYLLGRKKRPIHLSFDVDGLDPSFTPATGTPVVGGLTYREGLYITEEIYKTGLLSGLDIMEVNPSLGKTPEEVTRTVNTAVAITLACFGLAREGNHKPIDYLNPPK
Test: Arginase coupled enzymatic assay using recombinant human ARG1
Format: biochemical
Conditions: 2 nM ARG1, 0.8 mM L-Arginine, 10 mM sodium phosphate pH 7.4, 37° C.; read-out: Potency: Arginase 1 inhibition IC50
Protocol: Measurement of Compound Potency by Arginase Coupled Enzymatic Assay Using Recombinant Human ARG1 and ARG2
Purified recombinant human ARG1 and ARG2 were prepared in 50 mM Bicine, pH 8.5, 100 μM MnCl2, 20% glycerol and 1 mM DTT at a final stock concentration of 14.4 μM and 7.56 μM respectively. 2.5 nM of either ARG1 or ARG2 were incubated with varying concentrations of compounds in 10 mM sodium phosphate, pH 7.4, 0.1 mM MnCl2 and 2.5% DMSO in a total volume of 40 μl in a 384-well microplate (Corning™ #3640) at 37° C. for 1 h. The arginase enzymatic reaction was initiated by addition of 10 μl of 4 mM L-Arginine pre-incubated in 10 mM sodium phosphate, pH 7.4, and 0.1 mM MnCl2 at 37° C. into the enzyme and compound mixture, giving the final reaction conditions: 2 nM of ARG1 or ARG2 and 0.8 mM of L-Arginine in 10 mM sodium phosphate, pH 7.4, 0.1 mM MnCl2 and 2% DMSO with varying concentrations of compounds. Following 2 h incubation at 37° C., the arginase enzymatic reaction was stopped by transfer of 10 μl of reaction into 10 μl of detection mix (204 μM Amino-2-Borono-6-Hexanoic Acid, 0.25 μl Arginase Enzyme mix, 0.25 μl Arginase Developer, 0.25 μl Arginase Converter Enzyme in Arginase Assay Buffer from Arginase Activity Colorimetric Assay Kit, BioVision Inc. #K755-100) in a transparent 384-well microplate (Greiner #781801). The plate was immediately put into a plate reader (Synergy™ Neo2 Multi-Mode Microplate Reader) to monitor absorption at 570 nm at 37° C. Absorption values at 12-20 min were used to calculate compound potency. The value of the DMSO blank (MIN inhibition=100% activity) was used as a negative control. The positive control was established by adding 8 μl of enzyme and DMSO mix into 10 μl of detection mix followed by addition of 2 μl of L-Arginine (MAX inhibition=0% activity). To calculate the percent activity, Equation 1 was used. Abs570nm is the value at a given compound concentration:
A counter-screen was performed to identify any inhibition of the coupling enzymes by the test compounds. 10 μl of 0.26 mM of urea with varying concentrations of compounds in 10 mM sodium phosphate, pH 7.4, 0.1 mM MnCl2 and 2% DMSO were added into 10 μl of detection mix in place of the arginase enzymatic reaction mix. Absorption was monitored at 570 nm as described above. The values of a no substrate blank (without urea; MAX inhibition=0% activity) and a DMSO blank (MIN inhibition=100% activity) were used as positive and negative controls respectively. […] Inactivity in the counter-screen was used to confirm that results accurately reflected IC50 values for ARG1 and ARG2.

Row | Compound | IC50 [nM]
1 | N[C@]1(C(=O)O)C[C@H]2CN(C(=O)[C@@H]3CCCN3)C[C@H]2[C@H]1CCCB(O)O | 100 to 1000
2 | C[C@H](N)C(=O)N1C[C@@H]2C[C@](N)(C(=O)O)[C@H](CCCB(O)O)[C@@H]2C1 | 100 to 1000
3 | N[C@@]1(C(=O)O)C[C@H]2CNC[C@H]2[C@@H]1CCCB(O)O | < 100
4 | N[C@@]1(C(=O)O)C[C@H]2CN(C(CO)CCl)C[C@H]2[C@@H]1CCCB(O)O (some centres unmarked) | < 100
5 | N[C@@]1(C(=O)O)C[C@H]2CN(C3COC3)C[C@H]2[C@@H]1CCCB(O)O | 100 to 1000
6 | CC1(C)[C@H]2C[C@@H]3OB(CCC[C@H]4[C@@H]5CNC[C@@H]5C[C@@]4(N)C(=O)O)O[C@]3(C)[C@@H]1C2 | 100 to 1000
7 | C[C@H](N)C(=O)N1C[C@@H]2C[C@@](N)(C(=O)O)[C@@H](CCCB(O)O)[C@@H]2C1 | 100 to 1000
8 | NCCN1C[C@@H]2C[C@@](N)(C(=O)O)[C@@H](CCCB(O)O)[C@@H]2C1 | 100 to 1000
